Results from ChEMBL document CHEMBL1157802, “5-Functionalized indazoles as glucocorticoid receptor agonists” (Bioorg Med Chem Lett, 2010).

Columns and labels:
[1] = molecular target: T1, Glucocorticoid receptor (Homo sapiens, UniProt P04150)
T1 sequence (P04150 whole entry): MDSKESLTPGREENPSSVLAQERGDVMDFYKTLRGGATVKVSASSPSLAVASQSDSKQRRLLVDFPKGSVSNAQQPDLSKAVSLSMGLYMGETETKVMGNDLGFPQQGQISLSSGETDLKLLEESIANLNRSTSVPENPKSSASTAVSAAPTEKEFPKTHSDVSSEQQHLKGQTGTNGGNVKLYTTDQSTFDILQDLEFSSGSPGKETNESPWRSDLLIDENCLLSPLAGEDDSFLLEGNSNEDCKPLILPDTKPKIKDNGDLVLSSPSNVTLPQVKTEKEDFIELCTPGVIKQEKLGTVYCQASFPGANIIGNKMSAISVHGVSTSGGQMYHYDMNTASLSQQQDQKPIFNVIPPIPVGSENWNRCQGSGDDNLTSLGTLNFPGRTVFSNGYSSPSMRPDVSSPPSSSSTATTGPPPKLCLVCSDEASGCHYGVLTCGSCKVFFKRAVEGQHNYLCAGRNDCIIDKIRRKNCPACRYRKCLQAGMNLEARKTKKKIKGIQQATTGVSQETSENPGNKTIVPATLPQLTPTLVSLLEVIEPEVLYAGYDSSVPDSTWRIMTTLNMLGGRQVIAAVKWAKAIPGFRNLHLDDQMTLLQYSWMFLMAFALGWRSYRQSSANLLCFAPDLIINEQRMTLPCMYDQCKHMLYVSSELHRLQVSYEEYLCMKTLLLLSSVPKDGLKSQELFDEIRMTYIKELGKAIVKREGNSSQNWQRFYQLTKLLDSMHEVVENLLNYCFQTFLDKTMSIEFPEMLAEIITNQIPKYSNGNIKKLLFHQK
Description: Binding affinity to human glucocorticoid receptor by fluorescence polarization competitive binding assay

[2] = molecular target: hERG (KCNH2) (Homo sapiens, UniProt Q12809); experiment: Inhibition of human ERG at 1 uM
[3] = molecular target: T1, Glucocorticoid receptor; experiment: Agonist activity at glucocorticoid receptor in human MDA-kb2 cells transfected with MMTV-LUC assessed as induction of MMTV-LTR/promoter linked LUC gene by luciferase transactivation assay; type: functional, cell-based
[4] = molecular target: T1, Glucocorticoid receptor; experiment: Agonist activity at glucocorticoid receptor in human fibroblast assessed as inhibition of IL-1-beta-induced IL6 production treated 1 hr before IL1-beta challenge measured after 24 hrs by transrepression assay; type: functional
[5] = molecular target: Voltage-gated inwardly rectifying potassium channel KCNH2 (Homo sapiens, UniProt Q12809); experiment: Inhibition of human ERG by patch clamp method
[6] = molecular target: Beta-2 adrenergic receptor (Homo sapiens) (UniProt P07550); experiment: Inhibition of adrenergic beta2 receptor at 1 uM
Beta-2 adrenergic receptor (Homo sapiens), sequence (P07550 whole entry, looked up): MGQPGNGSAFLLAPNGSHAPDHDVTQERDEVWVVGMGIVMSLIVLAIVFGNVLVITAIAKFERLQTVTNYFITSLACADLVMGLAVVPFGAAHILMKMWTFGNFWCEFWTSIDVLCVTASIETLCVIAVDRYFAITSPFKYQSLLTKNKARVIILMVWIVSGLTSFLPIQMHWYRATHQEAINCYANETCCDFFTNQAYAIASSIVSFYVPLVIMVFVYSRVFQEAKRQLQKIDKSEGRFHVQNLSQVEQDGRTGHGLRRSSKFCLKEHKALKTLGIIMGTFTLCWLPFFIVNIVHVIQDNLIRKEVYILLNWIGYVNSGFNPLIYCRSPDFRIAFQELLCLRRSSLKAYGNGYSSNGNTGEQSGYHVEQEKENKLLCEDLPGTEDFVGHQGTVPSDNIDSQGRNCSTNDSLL

[7] = molecular target: D(1A) dopamine receptor (Homo sapiens) (UniProt P21728); experiment: Inhibition of dopamine D1 receptor at 1 uM
D(1A) dopamine receptor (Homo sapiens), sequence (P21728 whole entry): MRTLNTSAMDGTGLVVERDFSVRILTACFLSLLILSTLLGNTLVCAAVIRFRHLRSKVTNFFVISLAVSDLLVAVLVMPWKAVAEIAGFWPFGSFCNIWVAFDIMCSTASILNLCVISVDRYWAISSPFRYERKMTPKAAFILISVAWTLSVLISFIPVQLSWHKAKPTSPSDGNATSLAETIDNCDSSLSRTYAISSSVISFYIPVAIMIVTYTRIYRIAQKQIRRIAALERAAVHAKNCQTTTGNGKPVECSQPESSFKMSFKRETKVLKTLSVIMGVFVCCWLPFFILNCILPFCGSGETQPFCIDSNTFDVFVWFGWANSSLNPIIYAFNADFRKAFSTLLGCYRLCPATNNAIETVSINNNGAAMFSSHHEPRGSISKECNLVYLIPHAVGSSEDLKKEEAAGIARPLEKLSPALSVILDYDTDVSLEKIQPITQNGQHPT

[8] = molecular target: T2, Alpha-2A adrenergic receptor (Homo sapiens) (UniProt P08913); experiment: Inhibition of adrenergic alpha2A receptor at 1 uM
T2 sequence (whole entry): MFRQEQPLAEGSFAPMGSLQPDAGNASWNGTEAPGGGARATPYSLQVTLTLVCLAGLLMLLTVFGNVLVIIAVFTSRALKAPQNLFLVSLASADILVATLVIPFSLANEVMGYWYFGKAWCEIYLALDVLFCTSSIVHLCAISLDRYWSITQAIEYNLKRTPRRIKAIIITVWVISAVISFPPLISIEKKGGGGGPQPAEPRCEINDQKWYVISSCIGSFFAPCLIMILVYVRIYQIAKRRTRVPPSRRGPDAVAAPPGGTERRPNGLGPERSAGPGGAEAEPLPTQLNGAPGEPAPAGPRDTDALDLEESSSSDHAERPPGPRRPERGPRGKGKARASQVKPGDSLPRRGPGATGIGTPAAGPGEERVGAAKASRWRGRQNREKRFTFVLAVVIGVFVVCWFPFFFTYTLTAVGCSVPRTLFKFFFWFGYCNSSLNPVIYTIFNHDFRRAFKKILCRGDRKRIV

[9] = molecular target: T3, Alpha-1A adrenergic receptor (Homo sapiens) (UniProt P35348); experiment: Inhibition of adrenergic alpha1A receptor at 1 uM
T3 sequence (whole entry): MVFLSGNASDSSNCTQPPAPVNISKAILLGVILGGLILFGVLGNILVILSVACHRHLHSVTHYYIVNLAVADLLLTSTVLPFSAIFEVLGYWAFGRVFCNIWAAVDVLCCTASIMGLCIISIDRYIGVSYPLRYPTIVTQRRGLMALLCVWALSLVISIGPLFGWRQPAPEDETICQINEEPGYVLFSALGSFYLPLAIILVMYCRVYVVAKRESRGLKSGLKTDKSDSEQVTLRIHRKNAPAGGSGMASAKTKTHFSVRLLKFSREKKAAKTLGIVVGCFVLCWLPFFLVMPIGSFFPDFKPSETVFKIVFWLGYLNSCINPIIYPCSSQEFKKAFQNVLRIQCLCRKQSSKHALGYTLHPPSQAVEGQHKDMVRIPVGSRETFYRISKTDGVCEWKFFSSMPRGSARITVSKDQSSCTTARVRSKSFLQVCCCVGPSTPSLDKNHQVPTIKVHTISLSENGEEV

[10] = molecular target: Beta-1 adrenergic receptor (Homo sapiens) (UniProt P08588); experiment: Inhibition of adrenergic beta-1 receptor at 1 uM
Beta-1 adrenergic receptor (Homo sapiens), sequence (P08588 whole entry, looked up): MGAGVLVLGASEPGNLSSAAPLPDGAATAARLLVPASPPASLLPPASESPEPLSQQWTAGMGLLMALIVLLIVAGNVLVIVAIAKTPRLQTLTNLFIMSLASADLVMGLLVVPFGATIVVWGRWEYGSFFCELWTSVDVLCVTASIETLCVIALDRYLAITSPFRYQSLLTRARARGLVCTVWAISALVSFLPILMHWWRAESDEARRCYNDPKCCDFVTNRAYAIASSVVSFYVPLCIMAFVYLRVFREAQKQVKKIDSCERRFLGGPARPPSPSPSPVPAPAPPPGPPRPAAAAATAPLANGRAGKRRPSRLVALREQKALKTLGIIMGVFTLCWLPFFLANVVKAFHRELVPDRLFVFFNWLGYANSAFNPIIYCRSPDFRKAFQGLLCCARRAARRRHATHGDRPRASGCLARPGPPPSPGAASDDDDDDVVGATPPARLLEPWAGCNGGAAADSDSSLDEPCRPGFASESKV

[11] = Inhibition of rolipram binding site at 1 uM
[12] = Inhibition of ATP-sensitive potassium channel at 1 uM
[13] = molecular target: Mu-type opioid receptor (Homo sapiens) (UniProt P35372); experiment: Inhibition of mu opioid receptor at 1 uM
Mu-type opioid receptor (Homo sapiens), sequence (P35372 whole entry): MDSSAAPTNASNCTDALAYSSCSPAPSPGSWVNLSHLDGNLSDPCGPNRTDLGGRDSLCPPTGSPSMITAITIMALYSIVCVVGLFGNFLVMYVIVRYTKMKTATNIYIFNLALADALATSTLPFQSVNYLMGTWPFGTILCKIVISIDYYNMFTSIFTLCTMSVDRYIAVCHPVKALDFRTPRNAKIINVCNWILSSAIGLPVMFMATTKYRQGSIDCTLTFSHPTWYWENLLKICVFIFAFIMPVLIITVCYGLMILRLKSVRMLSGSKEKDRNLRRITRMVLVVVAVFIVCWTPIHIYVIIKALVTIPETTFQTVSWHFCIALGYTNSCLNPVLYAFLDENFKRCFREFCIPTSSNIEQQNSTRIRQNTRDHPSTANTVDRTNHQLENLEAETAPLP

[14] = molecular target: Sodium-dependent noradrenaline transporter (Homo sapiens) (UniProt P23975); experiment: Inhibition of norepinephrine transporter at 1 uM
Sodium-dependent noradrenaline transporter (Homo sapiens), sequence (P23975 whole entry): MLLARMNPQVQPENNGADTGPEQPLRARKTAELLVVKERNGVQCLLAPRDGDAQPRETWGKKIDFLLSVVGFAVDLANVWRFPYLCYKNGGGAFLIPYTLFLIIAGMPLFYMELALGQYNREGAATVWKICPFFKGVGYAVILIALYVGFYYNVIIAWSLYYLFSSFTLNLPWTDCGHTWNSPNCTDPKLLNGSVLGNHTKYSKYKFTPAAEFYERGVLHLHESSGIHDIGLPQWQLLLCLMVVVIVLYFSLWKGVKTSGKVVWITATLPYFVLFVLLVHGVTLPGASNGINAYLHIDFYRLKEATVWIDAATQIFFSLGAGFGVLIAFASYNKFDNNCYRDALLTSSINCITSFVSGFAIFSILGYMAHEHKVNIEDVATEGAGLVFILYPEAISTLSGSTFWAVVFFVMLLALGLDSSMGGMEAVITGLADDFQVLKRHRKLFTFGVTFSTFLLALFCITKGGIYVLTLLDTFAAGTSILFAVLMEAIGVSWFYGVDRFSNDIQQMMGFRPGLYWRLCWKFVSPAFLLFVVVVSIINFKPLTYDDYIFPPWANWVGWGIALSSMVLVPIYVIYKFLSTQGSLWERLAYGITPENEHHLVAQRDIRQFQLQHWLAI

[15] = Inhibition of NMDA receptor at 1 uM
[16] = molecular target: Muscarinic acetylcholine receptor M3 (Homo sapiens) (UniProt P20309); experiment: Inhibition of muscarinic M3 receptor at 1 uM
Muscarinic acetylcholine receptor M3 (Homo sapiens), sequence (P20309 whole entry, looked up): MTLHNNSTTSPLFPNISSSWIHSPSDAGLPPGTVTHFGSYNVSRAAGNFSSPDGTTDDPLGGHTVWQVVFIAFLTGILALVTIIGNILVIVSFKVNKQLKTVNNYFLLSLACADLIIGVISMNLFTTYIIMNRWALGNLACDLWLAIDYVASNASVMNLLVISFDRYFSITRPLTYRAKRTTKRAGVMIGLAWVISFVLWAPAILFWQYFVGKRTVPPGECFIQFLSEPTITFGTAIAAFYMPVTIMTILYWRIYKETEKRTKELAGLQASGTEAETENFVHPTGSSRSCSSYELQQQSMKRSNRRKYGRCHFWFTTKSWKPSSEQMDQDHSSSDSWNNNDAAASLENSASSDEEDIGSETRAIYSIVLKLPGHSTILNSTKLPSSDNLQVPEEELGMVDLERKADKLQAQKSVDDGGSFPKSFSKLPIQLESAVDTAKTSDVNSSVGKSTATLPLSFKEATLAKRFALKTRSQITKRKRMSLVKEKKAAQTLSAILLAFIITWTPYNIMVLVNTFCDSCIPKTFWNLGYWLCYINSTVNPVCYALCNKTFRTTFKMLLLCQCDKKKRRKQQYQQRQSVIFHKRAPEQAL

[17] = Inhibition of GABAA receptor agonist site at 1 uM; type: functional
[18] = Inhibition of nicotinic bungarotoxin-sensitive acetylcholine receptor at 1 uM
[19] = molecular target: T4, Adenosine receptor A1 (Homo sapiens) (UniProt P30542); experiment: Inhibition of adenosine A1 receptor at 1 uM
T4 sequence (whole entry): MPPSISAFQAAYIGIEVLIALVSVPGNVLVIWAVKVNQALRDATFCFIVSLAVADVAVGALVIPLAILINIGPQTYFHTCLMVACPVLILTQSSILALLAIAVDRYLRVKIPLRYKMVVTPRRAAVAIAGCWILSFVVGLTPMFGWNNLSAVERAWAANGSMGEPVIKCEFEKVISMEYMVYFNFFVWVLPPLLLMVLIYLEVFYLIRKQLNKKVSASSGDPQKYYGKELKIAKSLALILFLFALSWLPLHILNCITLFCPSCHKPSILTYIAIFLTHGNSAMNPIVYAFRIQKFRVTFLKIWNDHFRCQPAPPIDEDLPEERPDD

[20] = Inhibition of phencyclidine receptor at 1 uM
[21] = Inhibition of central imidazoline I2 receptor at 1 uM
[22] = molecular target: Adenosine receptor A2a (Homo sapiens) (UniProt P29274); experiment: Inhibition of adenosine A2A receptor at 1 uM
Adenosine receptor A2a (Homo sapiens), sequence (P29274 whole entry): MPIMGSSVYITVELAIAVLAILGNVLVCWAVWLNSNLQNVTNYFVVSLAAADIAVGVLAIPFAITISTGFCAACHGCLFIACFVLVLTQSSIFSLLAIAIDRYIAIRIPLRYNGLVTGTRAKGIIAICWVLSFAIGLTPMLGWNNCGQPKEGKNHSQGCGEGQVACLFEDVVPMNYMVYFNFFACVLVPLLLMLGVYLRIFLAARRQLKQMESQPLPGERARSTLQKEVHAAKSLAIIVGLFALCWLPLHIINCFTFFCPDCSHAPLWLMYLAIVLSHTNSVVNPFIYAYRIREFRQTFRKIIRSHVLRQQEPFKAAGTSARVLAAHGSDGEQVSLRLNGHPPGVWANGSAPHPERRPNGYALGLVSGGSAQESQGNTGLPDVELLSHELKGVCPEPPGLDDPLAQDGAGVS

[23] = molecular target: T5, Muscarinic acetylcholine receptor M2 (Homo sapiens) (UniProt P08172); experiment: Inhibition of muscarinic M2 receptor at 1 uM
T5 sequence (whole entry): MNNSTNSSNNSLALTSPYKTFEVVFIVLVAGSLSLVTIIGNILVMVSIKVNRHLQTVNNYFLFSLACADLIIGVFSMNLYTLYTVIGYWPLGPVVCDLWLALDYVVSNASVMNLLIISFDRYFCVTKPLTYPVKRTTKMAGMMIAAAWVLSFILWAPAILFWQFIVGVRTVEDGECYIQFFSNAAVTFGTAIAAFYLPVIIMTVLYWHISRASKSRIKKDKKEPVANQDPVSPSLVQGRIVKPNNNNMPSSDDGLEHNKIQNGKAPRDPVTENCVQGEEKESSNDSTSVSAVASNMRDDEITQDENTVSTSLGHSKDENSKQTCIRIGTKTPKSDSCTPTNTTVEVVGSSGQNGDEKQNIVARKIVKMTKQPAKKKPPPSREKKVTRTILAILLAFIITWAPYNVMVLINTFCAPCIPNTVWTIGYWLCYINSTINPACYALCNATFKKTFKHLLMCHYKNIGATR

[24] = molecular target: Sigma non-opioid intracellular receptor 1 (Homo sapiens) (UniProt Q99720); experiment: Inhibition of sigma 1 receptor at 1 uM
[25] = Inhibition of sodium channel site 2 at 1 uM
[26] = Inhibition of sigma 2 receptor at 1 uM
[27] = molecular target: T6, Alpha-1B adrenergic receptor (Homo sapiens) (UniProt P35368); experiment: Inhibition of adrenergic Alpha-1B receptor at 1 uM
T6 sequence (whole entry): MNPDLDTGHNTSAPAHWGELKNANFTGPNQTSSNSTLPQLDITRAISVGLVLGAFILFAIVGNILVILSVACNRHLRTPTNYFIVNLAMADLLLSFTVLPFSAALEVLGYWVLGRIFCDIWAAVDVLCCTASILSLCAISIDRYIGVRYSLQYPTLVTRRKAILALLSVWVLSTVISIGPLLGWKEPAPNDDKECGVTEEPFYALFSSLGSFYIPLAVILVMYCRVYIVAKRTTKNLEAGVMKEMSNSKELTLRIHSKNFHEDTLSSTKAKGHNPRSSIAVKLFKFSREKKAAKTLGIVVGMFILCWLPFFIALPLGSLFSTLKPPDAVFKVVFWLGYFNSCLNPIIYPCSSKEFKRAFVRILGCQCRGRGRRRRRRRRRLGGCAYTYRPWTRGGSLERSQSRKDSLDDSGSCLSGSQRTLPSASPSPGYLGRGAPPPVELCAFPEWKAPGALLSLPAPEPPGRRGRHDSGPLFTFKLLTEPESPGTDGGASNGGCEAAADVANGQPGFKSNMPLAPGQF

[28] = Inhibition of phorbol ester site of PKC at 1 uM
[29] = Inhibition of nicotinic acetylcholine receptor at 1 uM
[30] = molecular target: Prostaglandin E2 receptor EP4 subtype (Homo sapiens) (UniProt P35408); experiment: Inhibition of prostanoid EP4 receptor at 1 uM
Prostaglandin E2 receptor EP4 subtype (Homo sapiens), sequence (P35408 whole entry): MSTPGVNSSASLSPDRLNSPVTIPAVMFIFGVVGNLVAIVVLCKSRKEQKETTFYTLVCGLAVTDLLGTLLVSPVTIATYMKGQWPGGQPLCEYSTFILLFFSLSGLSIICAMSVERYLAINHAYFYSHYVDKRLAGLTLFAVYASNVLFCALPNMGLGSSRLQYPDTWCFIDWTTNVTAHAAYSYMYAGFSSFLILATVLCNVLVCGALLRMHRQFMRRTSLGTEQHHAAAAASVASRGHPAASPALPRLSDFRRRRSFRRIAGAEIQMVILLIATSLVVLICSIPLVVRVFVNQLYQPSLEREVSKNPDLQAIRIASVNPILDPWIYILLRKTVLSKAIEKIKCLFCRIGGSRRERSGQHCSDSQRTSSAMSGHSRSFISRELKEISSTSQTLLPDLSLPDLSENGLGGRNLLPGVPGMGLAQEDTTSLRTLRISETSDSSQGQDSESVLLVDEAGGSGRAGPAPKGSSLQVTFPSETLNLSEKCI

[31] = Inhibition of central benzodiazepine receptor at 1 uM
[32] = molecular target: D(2) dopamine receptor (Homo sapiens) (UniProt P14416); experiment: Inhibition of dopamine D2S receptor at 1 uM
D(2) dopamine receptor (Homo sapiens), sequence (P14416 whole entry): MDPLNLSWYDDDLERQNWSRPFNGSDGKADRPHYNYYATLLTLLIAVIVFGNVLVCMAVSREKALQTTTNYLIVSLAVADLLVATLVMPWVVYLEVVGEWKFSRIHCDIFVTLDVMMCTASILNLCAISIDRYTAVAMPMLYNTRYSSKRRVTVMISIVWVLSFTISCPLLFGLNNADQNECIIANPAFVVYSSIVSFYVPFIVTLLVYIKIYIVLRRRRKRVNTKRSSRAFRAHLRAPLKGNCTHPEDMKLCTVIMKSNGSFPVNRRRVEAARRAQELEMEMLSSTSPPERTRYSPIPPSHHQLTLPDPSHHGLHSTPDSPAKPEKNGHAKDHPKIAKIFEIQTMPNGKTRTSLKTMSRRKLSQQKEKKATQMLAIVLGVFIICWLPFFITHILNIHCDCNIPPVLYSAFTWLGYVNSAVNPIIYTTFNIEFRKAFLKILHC

[33] = molecular target: Histamine H1 receptor (Homo sapiens) (UniProt P35367); experiment: Inhibition of histamine H1 receptor at 1 uM
Histamine H1 receptor (Homo sapiens), sequence (P35367 whole entry): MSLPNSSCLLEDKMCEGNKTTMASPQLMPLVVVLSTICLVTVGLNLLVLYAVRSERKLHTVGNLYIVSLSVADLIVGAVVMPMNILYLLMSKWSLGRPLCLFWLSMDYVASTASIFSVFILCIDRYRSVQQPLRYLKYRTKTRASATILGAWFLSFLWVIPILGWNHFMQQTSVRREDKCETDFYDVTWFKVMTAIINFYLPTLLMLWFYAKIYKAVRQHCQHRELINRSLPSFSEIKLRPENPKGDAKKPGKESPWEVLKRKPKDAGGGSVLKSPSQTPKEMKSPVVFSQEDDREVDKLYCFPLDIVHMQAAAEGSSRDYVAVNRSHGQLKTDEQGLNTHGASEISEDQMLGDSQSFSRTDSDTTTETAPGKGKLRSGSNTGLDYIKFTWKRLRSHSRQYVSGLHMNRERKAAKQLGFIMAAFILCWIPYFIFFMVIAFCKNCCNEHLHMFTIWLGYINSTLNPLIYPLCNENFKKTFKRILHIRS

[34] = Inhibition of calcium channel L type dihydropyridine binding site at 1 uM
[35] = Selectivity for human glucocorticoid receptor over progesterone receptor
[36] = Selectivity for human glucocorticoid receptor over androgen receptor
[37] = Selectivity for human glucocorticoid receptor over ERalpha
[38] = Selectivity for human glucocorticoid receptor over ERbeta

Row | Compound | IC50 [1] | EC50 [4] | inhibition [6] | inhibition [7] | inhibition [8] | inhibition [9] | inhibition [10] | inhibition [11] | inhibition [12] | inhibition [13] | inhibition [14] | inhibition [15] | inhibition [16] | inhibition [17] | inhibition [18] | inhibition [19] | inhibition [20] | inhibition [21] | inhibition [22] | inhibition [23] | further results
1 | N#Cc1cc(C(O)(c2ccc3c(cnn3-c3ccc(F)cc3)c2)C(F)(F)F)ccc1F (single isomer, unassigned; (-)) [listing 1 of 2 here] | 54 nM | 112 nM |  |  |  |  |  |  |  |  |  |  |  |  |  |  |  |  |  |  | inhibition at 1 µM [2]: < 50%; EC50 ([3]; mda-kb2): Not Active; IC50 [5]: > 10000 nM
2 | OC(c1ccc(F)c(Cl)c1)(c1ccc2c(cnn2-c2ccc(F)cc2)c1)C(F)(F)F (single isomer, unassigned; (-)) |  |  | < 50% | < 50% | < 50% | < 50% | < 50% | < 50% | < 50% | < 50% | < 50% | < 50% | < 50% | < 50% | < 50% | < 50% | < 50% | < 50% | < 50% | < 50% | inhibition [24]: < 50%; inhibition [25]: < 50%; inhibition [26]: < 50%; inhibition [27]: < 50%; inhibition [28]: < 50%; inhibition [29]: < 50%; inhibition [30]: < 50%; inhibition [31]: < 50%; inhibition [32]: < 50%; inhibition [33]: < 50%; inhibition [34]: < 50%
3 | N#Cc1cc(C(O)(c2ccc3c(cnn3-c3ccc(F)cc3)c2)C(F)(F)F)ccc1F (single isomer, unassigned; (-)) [listing 2 of 2 here] |  |  | < 50% | < 50% | < 50% | < 50% | < 50% | < 50% | < 50% | < 50% | < 50% | < 50% | < 50% | < 50% | < 50% | < 50% | < 50% | < 50% | < 50% | < 50% | Ratio [35]: > 1000; Ratio [36]: > 1000; Ratio [37]: > 1000; Ratio [38]: > 1000; inhibition [24]: < 50%; inhibition [25]: < 50%; inhibition [26]: < 50%; inhibition [27]: < 50%; inhibition [28]: < 50%; inhibition [29]: < 50%; inhibition [30]: < 50%; inhibition [31]: < 50%; inhibition [32]: < 50%; inhibition [33]: < 50%; inhibition [34]: < 50%
4 | OC(c1ccc(F)c(Cl)c1)(c1ccc2c(cnn2-c2ccc(F)cc2)c1)C(F)(F)F (single isomer, unassigned; (-)) [1-(3-CHLORO-4-FLUOROPHENYL)-2,2,2-TRIFLUORO-1-(1-(4-FLUOROPHENYL)-1H-INDAZOL-5-YL)ETHANOL (ENANTIOMERIC MIX)] | 49 nM | 93 nM |  |  |  |  |  |  |  |  |  |  |  |  |  |  |  |  |  |  | EC50 ([3]; read-out: EC50): 1100 nM
